Test results published in patent US6897304B2, “Cephem compounds and ESBL-detecting reagents containing the same” (Zenyaku Kogyo Kabushiki Kaisha, priority 2000, dated 2005).

Tests used:
Conditions in all cases: 50 μl of 1 U/ml enzyme, 10 minutes
PCase (PCase Type I) = assay: Paper disk colour-change test, reactivity against β-lactamases (PCase); assay type: biochemical, B. cereus; design: key: −: negative; +: positive; ++: highly positive
Description: (§1) Each of the test compounds is dissolved in dimethyl sulfoxide. Paper disks with a diameter of 8 mm containing the test compounds in an amount of 5 or 25 μg per disk were prepared and dried in air. Each of these disks was added dropwise with a solution of β-lactamases (50 μl) prepared to a concentration of 1 U/ml with distilled water and allowed for 10 minutes.
(§2) PCase is an enzyme isolated from B. cereus (production of Sigma Chemical Co. :PCase Type I); and CEPase, from E. cloacae (production of Sigma chemical Co. :CEPase Type IV).

CEPase (CEPase Type IV) = molecular target: T1, CEPase (CEPase Type IV) (Enterobacter cloacae, UniProt P05364); assay: Paper disk colour-change test, reactivity against β-lactamases (CEPase); assay type: biochemical, E. cloacae; design: key: −: negative; +: positive; ++: highly positive
T1 construct: purchased Sigma chemical Co. CEPase Type IV; host or cells: isolated from E. cloacae
Description: as §1, §2

ESBL = assay: Paper disk colour-change test, reactivity against β-lactamases (ESBL); assay type: biochemical; design: key to Reactivity against β-lactamases: ESBL: −: negative; +: positive; ++: highly positive
Description: as §1

T1 sequence (P05364 21-381): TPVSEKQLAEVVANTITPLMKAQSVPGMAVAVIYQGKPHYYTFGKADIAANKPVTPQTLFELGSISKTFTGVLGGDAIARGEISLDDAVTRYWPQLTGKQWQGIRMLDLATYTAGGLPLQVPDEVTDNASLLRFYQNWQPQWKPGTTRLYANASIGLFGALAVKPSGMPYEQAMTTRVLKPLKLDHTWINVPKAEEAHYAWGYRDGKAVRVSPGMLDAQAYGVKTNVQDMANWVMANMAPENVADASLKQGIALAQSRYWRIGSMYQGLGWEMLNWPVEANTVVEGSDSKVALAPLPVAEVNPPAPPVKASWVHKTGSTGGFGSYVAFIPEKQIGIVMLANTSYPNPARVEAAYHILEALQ

Compound | Reactivity against β-lactamases: PCase (PCase (PCase Type I); content 5 μg/disk) | Reactivity against β-lactamases: CEPase (CEPase (CEPase Type IV); content 5 μg/disk) | Reactivity against β-lactamases: ESBL (ESBL; content 5 μg/disk) | color change (ESBL; content 5 μg/disk) | Reactivity against β-lactamases: PCase (PCase (PCase Type I); content 25 μg/disk) | Reactivity against β-lactamases: CEPase (CEPase (CEPase Type IV); content 25 μg/disk) | Reactivity against β-lactamases: ESBL (ESBL; content 25 μg/disk) | color change (ESBL; content 25 μg/disk)
CC(C)(ON=C(C(=O)NC1C(=O)N2C(C(=O)O)=C(C=Cc3ccc([N+](=O)[O-])cc3[N+](=O)[O-])CS[C@H]12)c1csc(N)n1)C(=O)O (stereo partly shown) [compound 1, 7-[2-(2-aminothiazol-4-yl)-2-(1-carboxy-1-methylethoxyimino)acetamido]-3-(2,4-dinitrostyryl)-3-cephem-4-carboxylic acid] | − | − | ++ | pale yellow → red |  |  |  | 
CC(C)(ON=C(C(=O)NC1C(=O)N2C(C(=O)O)=C(C=Cc3ccc([N+](=O)[O-])cc3)CS[C@H]12)c1csc(N)n1)C(=O)O (stereo partly shown) [compound 2, 7-[2-(2-aminothiazol-4-yl)-2-(1-carboxy-1-methylethoxyimino)acetamido]-3-(4-nitrostyryl)-3-cephem-4-carboxylic acid] | − | − | + | pale yellow → orange |  |  |  | 
CC(C)(ON=C(C(=O)NC1C(=O)N2C(C(=O)O)=C(C=Cc3ccc(C#N)cc3)CS[C@H]12)c1csc(N)n1)C(=O)O (stereo partly shown) [compound 3, 7-[2-(2-aminothiazol-4-yl)-2-(1-carboxy-1-methylethoxyimino)acetamido]-3-(4-cyanostyryl)-3-cephem-4-carboxylic acid] |  |  |  |  | − | − | + | pale yellow → golden
CON=C(C(=O)NC1C(=O)N2C(C(=O)O)=C(C=Cc3ccc([N+](=O)[O-])cc3)CS[C@H]12)c1csc(N)n1 (stereo partly shown) [compound 4, 7-[2-(2-aminothiazol-4-yl)-2-methoxyiminoacetamido]-3-(4-nitrostyryl)-3-cephem-4-carboxylic acid] | − | − | ++ | pale yellow → orange |  |  |  | 
Nc1nc(C(=NOCC(=O)O)C(=O)NC2C(=O)N3C(C(=O)O)=C(C=Cc4ccc([N+](=O)[O-])cc4[N+](=O)[O-])CS[C@H]23)cs1 (stereo partly shown) [compound 5, 7-[2-(2-aminothiazol-4-yl)-2-carboxymethoxyiminoacetamido]-3-(2,4-dinitrostyryl)-3-cephem-4-carboxylic acid] | − | − | ++ | pale yellow → red |  |  |  | 
Nc1nc(C(=NOCC(=O)O)C(=O)NC2C(=O)N3C(C(=O)O)=C(C=Cc4ccc([N+](=O)[O-])cc4)CS[C@H]23)cs1 (stereo partly shown) [compound 6, 7-[2-(2-aminothiazol-4-yl)-2-carboxymethoxyiminoacetamido]-3-(4-nitrostyryl)-3-cephem-4-carboxylic acid] | − | − | ++ | pale yellow → orange |  |  |  | 
O=C(Cc1cccs1)NC1C(=O)N2C(C(=O)O)=C(C=Cc3ccc([N+](=O)[O-])cc3[N+](=O)[O-])CS[C@H]12 (stereo partly shown) [compound A, 3-(2,4-dinitrostyryl)-7-(2-thienylacetamido)-3-cephem-4-carboxylic acid, reference compound] | ++ | ++ | ++ | pale yellow → red |  |  |  | 
